The numbers were not newly measured in patent US20210023041A1, “FORMULATIONS AND COMPOSITIONS OF DOCETAXEL” (Zhuhai Beihai Biotech Co., Ltd., priority 2018, published 2021), which cites them from elsewhere.

The subject of data set [1] is microtubule.
Data set [2] relates to plasma proteins.

As to `CC(=O)O[C@@]12CO[C@@H]1C[C@H](O)[C@@]1(C)C(=O)[C@H](O)C3=C(C)[C@@H](OC(=O)[C@H](O)[C@@H](NC(=O)OC(C)(C)C)c4ccccc4)C[C@@](O)([C@@H](OC(=O)c4ccccc4)[C@H]21)C3(C)C` [Docetaxel], the solubility in water entry is listed as “practically insoluble in water”. Further, the “potency in inhibiting microtubule depolymerization relative to paclitaxel” value in data set [1] is listed as “twice as potent as paclitaxel”. Further, the “in vitro binding to plasma proteins” value in data set [2] (in three cancer patients) is “approximately 97%”. The protein bound result in data set [2] (in vitro studies, mainly to α1-acid glycoprotein, albumin, and lipoproteins) is reported as “about 94%”.
